Reference: ChEMBL document CHEMBL6092125, “Synthesis and biological evaluation of novel aminoquinolines with an n-octyl linker: Impact of halogen substituents on C(7) or a terminal amino group on anticholinesterase and BACE1 activity” (Bioorg Med Chem Lett, 2024)
Active and inactive are the calls of the source. The rule behind the calls is not given here.

What was measured:
[1] = molecular target: Beta-secretase 1 (Homo sapiens) (UniProt P56817); assay: Inhibition of BACE1 (unknown origin) at 1 uM relative to control
[2] = molecular target: T1, Cholinesterase (Homo sapiens, UniProt P06276); assay: Competitive inhibition of recombinant human BChE by DTNB reagent based Ellman's method
[3] = system: SH-SY5Y; assay: Cytotoxicity against human SH-SY5Y cells incubated for 24 hrs by MTS assay; assay type: functional, cell-based
[4] = molecular target: T1, Cholinesterase; assay: Inhibition of recombinant human BChE by DTNB reagent based Ellman's method
[5] = molecular target: T2, Acetylcholinesterase (Homo sapiens, UniProt P22303); assay: Inhibition of recombinant human AChE by DTNB reagent based Ellman's method
[6] = system: HEK293; assay: Cytotoxicity against HEK293 cells incubated for 24 hrs by MTS assay; assay type: functional, cell-based; details: Homo sapiens
[7] = molecular target: T1, Cholinesterase; assay: Mixed type inhibition of recombinant human BChE by DTNB reagent based Ellman's method
[8] = molecular target: T2, Acetylcholinesterase; assay: Non-competitive inhibition of recombinant human AChE by DTNB reagent based Ellman's method
[9] = molecular target: T2, Acetylcholinesterase; assay: Competitive inhibition of recombinant human AChE by DTNB reagent based Ellman's method
[10] = molecular target: T2, Acetylcholinesterase; assay: Mixed type inhibition of recombinant human AChE by DTNB reagent based Ellman's method
[11] = system: HepG2; assay: Cytotoxicity against human HepG2 cells incubated for 24 hrs by MTS assay; assay type: functional, cell-based

T2 sequence (P22303 whole entry): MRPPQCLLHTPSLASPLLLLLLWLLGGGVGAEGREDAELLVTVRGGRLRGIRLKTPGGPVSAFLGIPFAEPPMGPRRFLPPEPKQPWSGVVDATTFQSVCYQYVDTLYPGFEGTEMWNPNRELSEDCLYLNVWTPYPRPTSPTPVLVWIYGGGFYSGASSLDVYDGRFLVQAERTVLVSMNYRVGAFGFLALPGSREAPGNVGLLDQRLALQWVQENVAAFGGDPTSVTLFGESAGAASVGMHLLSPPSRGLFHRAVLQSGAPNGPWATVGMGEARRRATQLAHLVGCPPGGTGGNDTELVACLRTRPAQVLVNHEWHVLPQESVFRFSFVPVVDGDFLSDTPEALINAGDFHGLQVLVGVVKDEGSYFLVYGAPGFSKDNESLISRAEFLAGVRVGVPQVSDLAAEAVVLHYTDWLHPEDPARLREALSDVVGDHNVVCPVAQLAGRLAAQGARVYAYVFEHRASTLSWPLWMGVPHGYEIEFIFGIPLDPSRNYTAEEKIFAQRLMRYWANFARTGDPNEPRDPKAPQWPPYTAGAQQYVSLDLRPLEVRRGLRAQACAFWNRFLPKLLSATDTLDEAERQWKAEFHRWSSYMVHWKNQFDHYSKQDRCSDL
T1 sequence (P06276 whole entry): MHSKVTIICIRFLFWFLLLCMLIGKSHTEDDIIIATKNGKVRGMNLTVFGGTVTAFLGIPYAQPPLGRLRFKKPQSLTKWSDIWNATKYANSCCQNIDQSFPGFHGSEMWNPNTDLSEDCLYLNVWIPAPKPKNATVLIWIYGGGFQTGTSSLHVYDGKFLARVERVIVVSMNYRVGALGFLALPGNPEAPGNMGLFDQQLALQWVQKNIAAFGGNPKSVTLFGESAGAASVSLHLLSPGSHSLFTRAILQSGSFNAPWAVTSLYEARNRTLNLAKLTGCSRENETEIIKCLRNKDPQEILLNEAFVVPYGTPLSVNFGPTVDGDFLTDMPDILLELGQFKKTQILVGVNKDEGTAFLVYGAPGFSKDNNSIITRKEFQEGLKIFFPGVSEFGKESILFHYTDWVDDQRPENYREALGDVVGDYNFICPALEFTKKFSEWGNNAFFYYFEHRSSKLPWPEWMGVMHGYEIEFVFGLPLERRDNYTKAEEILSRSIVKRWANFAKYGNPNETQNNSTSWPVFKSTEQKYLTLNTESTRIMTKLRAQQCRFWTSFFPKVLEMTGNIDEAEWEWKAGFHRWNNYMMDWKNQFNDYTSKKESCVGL
Beta-secretase 1 (Homo sapiens), sequence (P56817 whole entry): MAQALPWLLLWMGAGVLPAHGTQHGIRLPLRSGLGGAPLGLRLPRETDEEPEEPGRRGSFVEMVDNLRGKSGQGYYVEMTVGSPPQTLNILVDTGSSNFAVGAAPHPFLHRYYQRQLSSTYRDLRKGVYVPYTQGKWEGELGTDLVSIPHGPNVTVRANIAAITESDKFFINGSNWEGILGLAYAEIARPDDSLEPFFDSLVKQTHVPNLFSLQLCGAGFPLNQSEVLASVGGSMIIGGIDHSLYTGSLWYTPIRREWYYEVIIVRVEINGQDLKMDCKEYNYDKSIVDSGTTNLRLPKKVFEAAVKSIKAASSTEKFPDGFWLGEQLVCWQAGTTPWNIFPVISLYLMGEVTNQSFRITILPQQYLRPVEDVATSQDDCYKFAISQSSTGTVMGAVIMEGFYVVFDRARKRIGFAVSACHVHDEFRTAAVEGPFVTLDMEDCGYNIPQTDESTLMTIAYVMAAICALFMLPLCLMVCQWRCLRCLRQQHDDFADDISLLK

| SMILES | inhibition [1] [%] | Ki [2] [µM] | Activity [3] | Ki [4] [µM] | Ki [5] [µM] | Activity [6] | other results |
| --- | --- | --- | --- | --- | --- | --- | --- |
| FC(F)(F)c1ccc2c(NCCCCCCCCNc3ccncc3)ccnc2c1 | > 5.6 | 1.3 | – | – | – | – | – |
| Fc1cc(Br)ccc1CNCCCCCCCCNc1ccnc2cc(Cl)ccc12 | – | – | Active; Increase In Toxicity Compared To Parent Compound 1 | 0.23 | 0.11 | – | – |
| Fc1ccc(Br)cc1CNCCCCCCCCNc1ccnc2cc(Cl)ccc12 | – | – | – | 0.22 | 0.024 | – | – |
| Clc1ccc(CNCCCCCCCCNc2ccnc3cc(Cl)ccc23)c(Cl)c1 | – | – | Active; Increase In Toxicity Compared To Parent Compound 1 | 0.18 | 0.036 | – | – |
| Cc1cc(F)c(CNCCCCCCCCNc2ccnc3cc(Cl)ccc23)cc1F | – | – | – | 0.62 | 0.12 | Active | – |
| Fc1ccc(CNCCCCCCCCNc2ccnc3cc(Cl)ccc23)c(F)c1 | – | – | Active | 0.27 | 0.021 | – | – |
| FC(F)(F)c1ccc2c(NCCCCCCCCNC3NCCN3)ccnc2c1 | – | – | – | – | – | – | Ki [7]: 0.19 µM; Ki [8]: 0.2 µM |
| O=[N+]([O-])c1ccc(NCCCCCCCCNc2ccnc3cc(C(F)(F)F)ccc23)cc1 | > 5.6 | – | – | – | – | – | Ki [7]: 0.036 µM; Ki [8]: 0.14 µM |
| Fc1ccc(F)c(CNCCCCCCCCNc2ccnc3cc(Cl)ccc23)c1 | > 5.6 | – | – | 0.041 | 0.0082 | – | – |
| CC(C)(C)c1ccc(NCCCCCCCCNc2ccnc3cc(C(F)(F)F)ccc23)cc1 | – | 0.071 | – | – | – | – | Ki [8]: 0.16 µM |
| FC(F)(F)c1ccc2c(NCCCCCCCCNc3ccc(Cl)cc3)ccnc2c1 | – | 0.021 | Active | – | – | Active | Ki [9]: 0.07 µM |
| Fc1cc(C(F)(F)F)ccc1CNCCCCCCCCNc1ccnc2cc(Cl)ccc12 | – | – | Active; Increase In Toxicity Compared To Parent Compound 1 | 1.1 | 0.15 | Active | – |
| Fc1cc(C(F)(F)F)ccc1CN(CCCCCCCCNc1ccnc2cc(Cl)ccc12)c1ccc(C(F)(F)F)cc1F | – | – | – | 1.5 | 0.7 | – | – |
| Fc1cccc(NCCCCCCCCNc2ccnc3cc(C(F)(F)F)ccc23)c1 | > 5.6 | – | inactive | – | – | inactive | Ki [7]: 0.0067 µM; Ki [10]: 0.0071 µM; Activity [11]: inactive |
| Fc1ccc(NCCCCCCCCNc2ccnc3cc(C(F)(F)F)ccc23)cc1 | – | 0.0061 | – | – | – | – | Ki [8]: 0.012 µM |
| FC(F)(F)c1ccc2c(NCCCCCCCCNc3cc4ccccc4s3)ccnc2c1 | > 5.6 | 0.0044 | Active | – | – | Active | Ki [10]: 0.07 µM |
| Fc1ccc(F)c(CN(CCCCCCCCNc2ccnc3cc(Cl)ccc23)c2cc(F)ccc2F)c1 | – | – | – | 1.3 | 0.26 | – | – |
| FC(F)(F)c1ccc2c(NCCCCCCCCNc3ccccc3)ccnc2c1 | > 5.6 | – | – | – | – | – | Ki [7]: 0.021 µM; Ki [8]: 0.008 µM |
| Fc1cccc(CNCCCCCCCCNc2ccnc3cc(Cl)ccc23)c1 | – | – | – | 0.0084 | 0.0032 | – | – |
| FC(F)(F)c1ccc2c(NCCCCCCCCNc3ccccc3Cl)ccnc2c1 | – | 0.019 | Active | – | – | Active | Ki [10]: 0.013 µM |
| FC(F)(F)c1ccc2c(NCCCCCCCCNc3cc4ccccc4o3)ccnc2c1 | – | 0.049 | – | – | – | – | Ki [9]: 0.54 µM |
| Fc1ccc(Br)c(CNCCCCCCCCNc2ccnc3cc(Cl)ccc23)c1 | – | – | – | 0.28 | 0.016 | – | – |
| FC(F)(F)c1ccc2c(NCCCCCCCCNc3cccc(Cl)c3)ccnc2c1 | > 5.6 | – | Active | – | – | Active | Ki [7]: 0.0059 µM; Ki [10]: 0.011 µM |
